ChEMBL document CHEMBL1201862, “PubChem BioAssay data set” (2004)
The source made the active and inactive calls.

Experiments:
INS1 = assay: beta cell apoptosis inhibitors, cytokine rescue, dose response, luminescence, retest (AID 449756); assay type: functional, cell-based; settings: Rattus norvegicus;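 note: cell death triggered by IL-1 beta plus TNF-alpha plus IFN-gamma mixture; protective hits raise ATP signal compared with cytokine alone wells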
[1] = Shn3 3'UTR reporter inhibitors, dose response, cell-based, Clone20 osteoblasts, firefly luciferase, cherry-picked (AID 624132); assay type: functional;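 note: firefly luciferase luminescence from reporter carrying the Shn3 3'UTR in osteoblasts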
[2] = HepG2 cell cytotoxicity, dose response, cytotoxicity control for Shn3 inhibitor project, CellTiter-Glo, cherry-picked (AID 624134); assay type: functional, cell-based
[3] = control 3'UTR Renilla luciferase suppression, dose response, counter-screen for Shn3 inhibitor project, cell-based, Clone20-Shn3RL, cherry-picked (AID 624133); assay type: functional
[4] = reduction of Shn3 3'UTR firefly luciferase signal, dose response, Schnurri-3 inhibitor project, cell-based, Clone20 osteoblasts, cherry-pick, set 2 (AID 720490); assay type: functional;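 note: actives lower the luminescence signal as inhibitors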
[5] = Dose-response inhibition of insulin secretion in a rat insulinoma line at 5 mM glucose (AID 1117331); assay type: functional, cell-based; settings: INS-1E
[6] = system: Streptococcus sp. 'group A'; assay: growth inhibition of control SK(-) GAS strain, dose response, counter-screen for streptokinase expression inhibitor project, luminescence, kanamycin, BacTiterGlo, confirmation (AID 1900); assay type: functional, organism-based
[7] = inhibitors of intracellular T. cruzi replication, confirmation, NIH3T3 host cells, beta-gal luminescence (AID 2044); assay type: functional, cell-based;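 note: intracellular parasites grown in NIH/3T3 mouse fibroblasts as host cells; luminescent beta-galactosidase reporter signal from transgenic T. cruzi replicating inside host cells; inhibitors lower the luminescence signal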
[8] = cytotoxicity toward NIH3T3 fibroblasts, dose response, counter-screen, cell-based, ATP luminescence, mouse fibroblasts (AID 2010); assay type: functional;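 note: cells exposed to compound for about 90 hours before reading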
Streptococcus = assay: Group A Streptococcus viability loss, dose response, counter-screen for streptokinase expression inhibitor project, luminescence, BacTiterGlo (AID 1915); assay type: functional, organism-based;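 note: potency for reduction of bacterial viability or growth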
[9] = biological target: T1, Ubiquitin-conjugating enzyme E2 N (Homo sapiens, UniProt P61088); assay type: functional;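 note: Dose-response confirmation in a TR-FRET assay detecting UBC13-driven polyubiquitin chain formation, inhibition measured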
T1 sequence (P61088 whole entry): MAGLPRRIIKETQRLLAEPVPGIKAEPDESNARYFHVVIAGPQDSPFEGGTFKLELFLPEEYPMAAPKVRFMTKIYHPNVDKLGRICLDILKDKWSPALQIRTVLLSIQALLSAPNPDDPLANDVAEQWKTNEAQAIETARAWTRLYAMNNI

[10] = biological target: T2, Replicative DNA helicase DnaB (Mycobacterium tuberculosis, UniProt P9WMR3); assay: DnaB intein splicing inhibitors, dose response, biochemical, cell-free fluorescence (AID 449749); assay type: functional
T2 sequence (P9WMR3 whole entry): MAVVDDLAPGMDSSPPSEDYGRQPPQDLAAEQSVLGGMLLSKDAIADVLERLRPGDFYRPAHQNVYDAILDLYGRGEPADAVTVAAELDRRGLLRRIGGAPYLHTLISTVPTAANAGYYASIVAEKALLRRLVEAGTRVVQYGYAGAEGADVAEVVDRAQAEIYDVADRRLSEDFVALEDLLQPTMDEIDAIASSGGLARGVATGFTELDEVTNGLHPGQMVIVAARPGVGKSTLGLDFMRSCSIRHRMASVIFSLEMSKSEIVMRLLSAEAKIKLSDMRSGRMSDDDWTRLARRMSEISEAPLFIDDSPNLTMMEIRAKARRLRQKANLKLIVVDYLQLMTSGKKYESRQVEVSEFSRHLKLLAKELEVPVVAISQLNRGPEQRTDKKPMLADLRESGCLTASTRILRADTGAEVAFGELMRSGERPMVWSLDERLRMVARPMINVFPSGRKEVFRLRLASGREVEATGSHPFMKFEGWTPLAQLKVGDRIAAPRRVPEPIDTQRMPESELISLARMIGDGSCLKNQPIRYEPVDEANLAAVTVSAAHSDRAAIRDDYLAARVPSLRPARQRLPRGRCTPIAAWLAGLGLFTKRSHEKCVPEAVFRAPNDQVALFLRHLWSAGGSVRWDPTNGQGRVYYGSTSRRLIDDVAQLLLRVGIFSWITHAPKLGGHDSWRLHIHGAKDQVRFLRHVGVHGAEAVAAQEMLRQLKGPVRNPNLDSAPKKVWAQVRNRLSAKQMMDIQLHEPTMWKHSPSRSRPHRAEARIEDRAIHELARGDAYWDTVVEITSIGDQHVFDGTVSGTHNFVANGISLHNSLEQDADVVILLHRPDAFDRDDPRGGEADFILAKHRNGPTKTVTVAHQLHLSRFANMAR

[11] = biological target: Heat shock protein HSP 90-alpha (Homo sapiens, UniProt P07900); assay type: functional, organism-based
[12] = biological target: T3, Apoptotic protease-activating factor 1 (Homo sapiens, UniProt O14727); assay type: functional
T3 sequence (O14727 whole entry): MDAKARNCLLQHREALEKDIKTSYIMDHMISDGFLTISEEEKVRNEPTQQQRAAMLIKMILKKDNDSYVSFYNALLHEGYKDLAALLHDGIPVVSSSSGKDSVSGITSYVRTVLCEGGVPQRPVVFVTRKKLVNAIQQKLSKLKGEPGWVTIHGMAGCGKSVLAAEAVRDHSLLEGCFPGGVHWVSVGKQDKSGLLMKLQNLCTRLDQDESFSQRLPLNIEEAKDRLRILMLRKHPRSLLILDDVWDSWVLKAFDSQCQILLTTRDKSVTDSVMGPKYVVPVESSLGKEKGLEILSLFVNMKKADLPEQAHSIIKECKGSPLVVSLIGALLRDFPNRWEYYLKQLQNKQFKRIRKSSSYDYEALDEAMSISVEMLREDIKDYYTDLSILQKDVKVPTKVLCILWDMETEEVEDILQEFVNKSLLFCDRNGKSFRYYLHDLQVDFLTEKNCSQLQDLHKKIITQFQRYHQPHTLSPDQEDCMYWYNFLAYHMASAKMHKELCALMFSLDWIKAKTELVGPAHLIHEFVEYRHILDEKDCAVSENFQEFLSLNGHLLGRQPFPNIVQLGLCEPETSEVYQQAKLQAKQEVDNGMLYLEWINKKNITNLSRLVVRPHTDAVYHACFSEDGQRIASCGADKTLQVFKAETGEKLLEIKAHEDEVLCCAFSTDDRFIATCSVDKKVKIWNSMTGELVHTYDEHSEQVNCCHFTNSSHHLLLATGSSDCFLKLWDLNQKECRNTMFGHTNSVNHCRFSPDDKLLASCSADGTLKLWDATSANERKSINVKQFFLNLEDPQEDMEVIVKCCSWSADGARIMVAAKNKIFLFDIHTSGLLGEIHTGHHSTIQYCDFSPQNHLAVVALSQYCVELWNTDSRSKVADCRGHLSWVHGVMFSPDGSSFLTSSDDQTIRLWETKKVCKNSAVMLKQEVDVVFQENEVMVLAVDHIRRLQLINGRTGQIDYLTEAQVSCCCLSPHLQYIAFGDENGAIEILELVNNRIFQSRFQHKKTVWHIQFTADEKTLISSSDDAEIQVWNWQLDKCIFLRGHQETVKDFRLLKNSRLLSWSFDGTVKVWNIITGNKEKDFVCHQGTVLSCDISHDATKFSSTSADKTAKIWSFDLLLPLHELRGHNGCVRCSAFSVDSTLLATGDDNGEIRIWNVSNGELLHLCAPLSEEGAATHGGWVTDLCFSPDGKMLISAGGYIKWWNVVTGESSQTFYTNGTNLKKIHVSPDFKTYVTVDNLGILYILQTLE

Protein RecA = biological target: T4, Protein RecA (Mycobacterium tuberculosis, UniProt P9WHJ3); assay: Fluorescence Cell-Free Homogeneous Dose Retest to Identify Inhibitors of RecA-Intein Splicing Activity. [Related pubchem assays (depositor defined):AID2097, AID2223, AID489010, AID492950]; assay type: functional
T4 sequence (P9WHJ3 whole entry): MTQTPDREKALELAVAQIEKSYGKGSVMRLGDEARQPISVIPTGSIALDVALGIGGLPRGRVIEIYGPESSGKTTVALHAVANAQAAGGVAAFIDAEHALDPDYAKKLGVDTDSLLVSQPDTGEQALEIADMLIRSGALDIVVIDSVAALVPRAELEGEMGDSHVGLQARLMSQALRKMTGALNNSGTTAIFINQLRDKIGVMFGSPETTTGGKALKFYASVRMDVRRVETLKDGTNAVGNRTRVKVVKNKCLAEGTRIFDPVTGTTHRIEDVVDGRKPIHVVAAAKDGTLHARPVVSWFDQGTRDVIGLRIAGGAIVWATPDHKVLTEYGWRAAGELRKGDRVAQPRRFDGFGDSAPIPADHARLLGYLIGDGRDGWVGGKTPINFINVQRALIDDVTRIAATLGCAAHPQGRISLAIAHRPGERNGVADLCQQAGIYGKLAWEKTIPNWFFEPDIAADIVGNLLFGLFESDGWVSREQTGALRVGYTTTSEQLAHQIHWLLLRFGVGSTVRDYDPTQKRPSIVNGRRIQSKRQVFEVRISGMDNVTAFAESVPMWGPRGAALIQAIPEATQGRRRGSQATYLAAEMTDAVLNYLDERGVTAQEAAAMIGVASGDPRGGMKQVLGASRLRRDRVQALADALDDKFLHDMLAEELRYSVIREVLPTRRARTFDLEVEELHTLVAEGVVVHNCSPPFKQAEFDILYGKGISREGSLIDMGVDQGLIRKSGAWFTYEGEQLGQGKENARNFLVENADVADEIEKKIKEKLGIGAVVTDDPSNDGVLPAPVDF

Melanocortin receptor 4 = Melanocortin receptor 4 (Homo sapiens, UniProt P32245); assay type: functional, cell-based;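 note: Cell-based assay with luminescence read-out, confirmatory dose-response testing for agonist activity of biased ligands at MC4R; human U2OS cells with tagged receptor and beta-arrestin; potency of agonists that increase receptor coupling to beta-arrestin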
Sequence of Melanocortin receptor 4 (P32245 whole entry): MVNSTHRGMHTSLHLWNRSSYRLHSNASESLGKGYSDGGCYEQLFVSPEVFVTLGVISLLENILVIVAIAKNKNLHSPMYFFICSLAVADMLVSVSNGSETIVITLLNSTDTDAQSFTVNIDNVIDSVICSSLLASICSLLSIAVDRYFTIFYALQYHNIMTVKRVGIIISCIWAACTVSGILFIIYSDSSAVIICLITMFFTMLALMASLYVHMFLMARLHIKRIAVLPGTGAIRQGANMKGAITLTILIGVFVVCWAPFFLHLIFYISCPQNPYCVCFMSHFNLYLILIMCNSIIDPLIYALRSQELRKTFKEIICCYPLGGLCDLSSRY

[13] = biological target: DNA repair protein RAD52 homolog (Homo sapiens, UniProt P43351); assay type: functional, biochemical
Sequence of DNA repair protein RAD52 homolog (P43351 whole entry): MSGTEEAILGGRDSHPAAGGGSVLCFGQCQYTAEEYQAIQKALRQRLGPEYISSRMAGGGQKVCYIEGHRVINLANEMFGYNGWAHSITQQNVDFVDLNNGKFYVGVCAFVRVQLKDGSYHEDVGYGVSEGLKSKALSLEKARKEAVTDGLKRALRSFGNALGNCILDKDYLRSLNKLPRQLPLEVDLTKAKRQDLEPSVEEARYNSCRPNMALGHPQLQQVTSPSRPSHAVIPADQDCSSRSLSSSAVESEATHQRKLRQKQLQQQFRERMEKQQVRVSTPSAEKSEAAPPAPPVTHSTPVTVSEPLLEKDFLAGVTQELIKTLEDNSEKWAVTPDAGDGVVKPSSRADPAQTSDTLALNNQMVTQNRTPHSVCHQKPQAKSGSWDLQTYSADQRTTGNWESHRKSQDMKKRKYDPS

[14] = inhibitors of CMV-promoter luciferase reporter, dose response, counter-screen for Pax8 inhibitor project, cell-based, HEK293, luminescence, dry powder (AID 743020); assay type: functional
[15] = biological target: Delta-type opioid receptor (Homo sapiens, UniProt P41143); assay: Counterscreen for agonists of heterodimerization of the mu 1 (OPRM1) and delta 1 (OPRD1) opioid receptors: Luminescence-based cell-based high throughput dose response assay to identify agonists of OPRD1 homodimerization. [Related pubchem assays (depositor defined):AID504326, AID504355, AID504692, AID504904, AID504905]; assay type: functional
Sequence of Delta-type opioid receptor (P41143 whole entry): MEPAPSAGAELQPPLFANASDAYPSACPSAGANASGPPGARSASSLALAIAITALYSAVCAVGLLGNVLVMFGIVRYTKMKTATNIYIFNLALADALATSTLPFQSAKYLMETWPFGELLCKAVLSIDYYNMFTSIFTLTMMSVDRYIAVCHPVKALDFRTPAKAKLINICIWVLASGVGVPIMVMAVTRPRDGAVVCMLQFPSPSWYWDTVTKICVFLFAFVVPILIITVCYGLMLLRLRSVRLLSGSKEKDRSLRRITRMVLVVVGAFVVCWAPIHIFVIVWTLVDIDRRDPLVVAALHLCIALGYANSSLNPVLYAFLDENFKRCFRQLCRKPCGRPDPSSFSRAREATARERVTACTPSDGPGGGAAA

Mu-type opioid receptor = Mu-type opioid receptor (Homo sapiens, UniProt P35372); assay: Counterscreen for agonists of heterodimerization of the mu 1 (OPRM1) and delta 1 (OPRD1) opioid receptors: Luminescence-based cell-based high throughput dose response assay to identify agonists of OPRM1 homodimerization.; assay type: functional;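 note: U2OS cells expressing OPRM1 and beta-arrestin as split beta-galactosidase partners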
Sequence of Mu-type opioid receptor (P35372 whole entry): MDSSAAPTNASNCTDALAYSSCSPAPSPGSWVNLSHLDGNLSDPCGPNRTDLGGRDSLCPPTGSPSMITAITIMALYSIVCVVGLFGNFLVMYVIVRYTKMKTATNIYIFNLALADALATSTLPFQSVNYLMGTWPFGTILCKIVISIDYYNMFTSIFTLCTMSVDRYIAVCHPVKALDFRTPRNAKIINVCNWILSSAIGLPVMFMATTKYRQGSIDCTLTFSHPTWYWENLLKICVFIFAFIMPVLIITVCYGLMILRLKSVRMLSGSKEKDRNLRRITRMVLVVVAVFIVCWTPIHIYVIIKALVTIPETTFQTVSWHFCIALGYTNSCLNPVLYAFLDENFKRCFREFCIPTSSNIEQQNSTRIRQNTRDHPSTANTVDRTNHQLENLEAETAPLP

[16] = biological target: 5-hydroxytryptamine receptor 5A (Homo sapiens, UniProt P47898); assay: Counterscreen for agonists of OPRM1-OPRD1 heterodimerization: luminescence-based cell-based high throughput dose response assay to identify agonists of 5-hydroxytryptamine (serotonin) 5A receptor (HTR5A). [Related pubchem assays (depositor defined):AID504326, AID504355, AID504692, AID504904, AID504905]; assay type: functional
Sequence of 5-hydroxytryptamine receptor 5A (P47898 whole entry): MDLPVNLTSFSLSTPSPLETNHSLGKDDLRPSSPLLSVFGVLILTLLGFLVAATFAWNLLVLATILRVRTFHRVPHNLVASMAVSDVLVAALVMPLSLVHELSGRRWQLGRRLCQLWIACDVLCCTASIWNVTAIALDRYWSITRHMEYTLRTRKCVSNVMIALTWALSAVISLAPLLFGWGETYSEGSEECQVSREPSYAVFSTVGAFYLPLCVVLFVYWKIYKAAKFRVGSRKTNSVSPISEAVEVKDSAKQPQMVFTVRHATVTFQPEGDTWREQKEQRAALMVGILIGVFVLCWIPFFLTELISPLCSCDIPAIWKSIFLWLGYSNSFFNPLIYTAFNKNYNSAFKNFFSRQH

Paired box protein Pax-8 = Paired box protein Pax-8 (Homo sapiens, UniProt Q06710); assay: inhibitors of PAX8-driven TPO luciferase reporter, dose response, RMG-I cells, cherry-pick (AID 687027); assay type: functional, cell-based;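 note: luciferase reporter driven by Pax8 target thyroperoxidase promoter measured by SteadyGlo luminescence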
Sequence of Paired box protein Pax-8 (Q06710 whole entry): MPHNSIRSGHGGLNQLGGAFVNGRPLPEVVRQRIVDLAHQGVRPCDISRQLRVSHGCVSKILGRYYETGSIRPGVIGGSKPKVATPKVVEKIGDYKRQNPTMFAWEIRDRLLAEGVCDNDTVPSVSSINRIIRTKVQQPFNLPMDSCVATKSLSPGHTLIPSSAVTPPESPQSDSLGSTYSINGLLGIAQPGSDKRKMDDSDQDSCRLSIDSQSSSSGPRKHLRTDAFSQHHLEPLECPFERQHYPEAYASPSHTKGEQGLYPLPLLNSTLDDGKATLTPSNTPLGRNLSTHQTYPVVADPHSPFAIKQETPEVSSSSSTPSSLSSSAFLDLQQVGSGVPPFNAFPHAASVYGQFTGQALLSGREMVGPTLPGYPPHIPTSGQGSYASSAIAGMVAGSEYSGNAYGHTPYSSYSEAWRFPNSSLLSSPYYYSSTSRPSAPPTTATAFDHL

[17] = non-specific cell cytotoxicity, dose response, cytotoxicity control for PAX8 inhibitor project, plate reader, dry powder samples (AID 743021); assay type: functional, cell-based
[18] = biological target: NAD-dependent protein deacylase sirtuin-5, mitochondrial (Homo sapiens, UniProt Q9NXA8); assay: SIRT5 desuccinylase inhibitors, dose response, biochemical, fluorescence imaging, cherry-pick, set 5 (AID 720591);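 note: desuccinylation of succinyl peptide AMC substrate read as fluorescence after trypsin release; potency of inhibitors that lower fluorescence and may act on trypsin instead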
Sequence of NAD-dependent protein deacylase sirtuin-5, mitochondrial (Q9NXA8 whole entry): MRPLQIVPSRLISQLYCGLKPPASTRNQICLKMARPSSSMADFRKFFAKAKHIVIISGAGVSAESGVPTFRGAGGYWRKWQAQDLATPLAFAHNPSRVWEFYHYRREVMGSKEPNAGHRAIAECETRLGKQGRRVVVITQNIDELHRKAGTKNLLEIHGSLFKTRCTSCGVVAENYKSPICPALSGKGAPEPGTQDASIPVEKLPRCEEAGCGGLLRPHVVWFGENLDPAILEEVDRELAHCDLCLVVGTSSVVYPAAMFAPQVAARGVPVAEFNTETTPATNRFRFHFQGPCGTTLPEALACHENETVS

What does the source list for `Cc1ccc(NC(=O)c2cc(S(=O)(=O)NCCC3=CCCCC3)ccc2F)cc1F`?
AC50 (INS1): 3.03 µM (active); AC50 [1]: 4.13 µM (active); AC50 [2]: 41.5 µM (active); AC50 [3]: 46.1 µM (active); AC50 [4]: 3.83 µM (active)

For `C[C@@H](CN(C)C)CN1c2ccccc2Sc2ccccc21`, which IC50 [5] is on record?
Its IC50 is > 33.3 µM (inactive).

With `CCCCCCCCCCOC(=O)C[n+]1c(COc2cccc(C)c2)n(C)c2ccccc21` as the molecule, how does the EC50 [6] read?
Its EC50 is 4.16 µM (active).

And the EC50 [7]?
Its EC50 is 1 µM (active).

And the EC50 [8]?
Its EC50 is > 60 µM (not active).

What about the EC50 (Streptococcus) of the same molecule?
The EC50 was 7.73 µM (active).

And the IC50 [9]?
The IC50 was > 20 µM (inactive).

What about the AC50 [10] of the same molecule?
Its AC50 is 3.19 µM (active).

What about the AC50 [11] of the same molecule?
Its AC50 is 32.5 µM (active).

What about the IC50 [12] of the same molecule?
Its IC50 is 15.9 µM (active).

What about the EC50 (Protein RecA) of the same molecule?
Its EC50 is 9.88 µM (active).

What about the AC50 (INS1) of the same molecule?
The AC50 was 3.87 µM (active).

What about the EC50 (Melanocortin receptor 4) of the same molecule?
Its EC50 is > 89.2 µM (inactive).

And the AC50 [13]?
The AC50 was 11.9 µM (active).

With `CCCCC(=O)N1CCN(c2ccc(OC)cc2[N+](=O)[O-])CC1` as the molecule, how does the AC50 [14] read?
The AC50 was < 21.5 µM (active).

Which results are given for `CCN1CCN(Cc2ccc(NC(=O)c3ccc(C)c(NC(=O)c4cnc5cc(C(F)(F)F)ccc5c4O)c3)cc2C(F)(F)F)CC1`?
IC50 [9]: > 20 µM (inactive); EC50 [15]: 11.2 µM (inactive); EC50 (Mu-type opioid receptor): > 92.5 µM (inactive); EC50 [16]: > 92.5 µM (inactive); AC50 (INS1): 4.42 µM (active); AC50 (Paired box protein Pax-8): 10.6 µM (active); AC50 [17]: 26.2 µM (active)

With `CS(=O)(=O)N(CC(=O)N1CCCCC1)c1cccc(F)c1` as the molecule, how does the AC50 [18] read?
Its AC50 is 29.7 µM (active).
